Legend:
[1] = biological target: Mitogen-activated protein kinase kinase kinase kinase 3 (Homo sapiens) (UniProt Q8IVH8); details: Compound concentration 100.0 nM
[2] = biological target: Mast/stem cell growth factor receptor Kit (Homo sapiens) (UniProt P10721); details: Compound concentration 100.0 nM
[3] = biological target: Mitogen-activated protein kinase 11 (Homo sapiens, UniProt Q15759); details: Compound concentration 100.0 nM
[4] = biological target: Fibroblast growth factor receptor 2 (Homo sapiens) (UniProt P21802); details: Compound concentration 100.0 nM
[5] = biological target: Mitogen-activated protein kinase kinase kinase 3 (Homo sapiens) (UniProt Q99759); details: Compound concentration 100.0 nM
[6] = biological target: Serine/threonine-protein kinase Nek11 (Homo sapiens) (UniProt Q8NG66); details: Compound concentration 100.0 nM
[7] = biological target: Serine/threonine-protein kinase RIO2 (Homo sapiens) (UniProt Q9BVS4); details: Compound concentration 100.0 nM
[8] = biological target: Rhodopsin kinase GRK1 (Homo sapiens) (UniProt Q15835); details: Compound concentration 100.0 nM
[9] = biological target: Ribosomal protein S6 kinase alpha-2 (Homo sapiens) (UniProt Q15349); details: Compound concentration 100.0 nM
[10] = biological target: Maternal embryonic leucine zipper kinase (Homo sapiens) (UniProt Q14680); details: Compound concentration 100.0 nM
[11] = biological target: Dual specificity testis-specific protein kinase 1 (Homo sapiens) (UniProt Q15569); details: Compound concentration 100.0 nM
[12] = system: Phosphatidylinositol 4,5-bisphosphate 3-kinase catalytic subunit alpha isoform (Homo sapiens), P42336 [C420R]; details: Compound concentration 100.0 nM
[13] = biological target: 5'-AMP-activated protein kinase catalytic subunit alpha-2 (Homo sapiens) (UniProt P54646); details: Compound concentration 100.0 nM
[14] = biological target: Serine/threonine-protein kinase 35 (Homo sapiens) (UniProt Q8TDR2); details: Compound concentration 100.0 nM
[15] = biological target: Mitogen-activated protein kinase 1 (Homo sapiens) (UniProt P28482); details: Compound concentration 100.0 nM
[16] = biological target: 5-hydroxytryptamine receptor 5A (Homo sapiens) (UniProt P47898); details: Compound concentration 10.0 uM
Rattus norvegicus = organism: Rattus norvegicus; details: Compound concentration 10.0 uM
[17] = biological target: Alpha-2B adrenergic receptor (Homo sapiens) (UniProt P18089); details: Compound concentration 10.0 uM
[18] = biological target: T1, GABA-A receptor; anion channel (Rattus norvegicus) (UniProt O09028+P15431+P18506+P18508+P19969+P20236+P23574+P23576+P28471+P28473+P30191+P62813+P63079+P63138+Q91ZM7+Q9ES14); details: Compound concentration 10.0 uM
[19] = biological target: T1, GABA-A receptor; anion channel (Rattus norvegicus); details: Compound concentration 10.0 uM; remark: listed apart in the source
[20] = biological target: Alpha-1A adrenergic receptor (Homo sapiens) (UniProt P35348); details: Compound concentration 10.0 uM
[21] = biological target: Muscarinic acetylcholine receptor M4 (Homo sapiens) (UniProt P08173); details: Compound concentration 10.0 uM
[22] = biological target: 5-hydroxytryptamine receptor 2C (Homo sapiens) (UniProt P28335); details: Compound concentration 10.0 uM
[23] = biological target: 5-hydroxytryptamine receptor 1B (Homo sapiens) (UniProt P28222); details: Compound concentration 10.0 uM
[24] = biological target: Muscarinic acetylcholine receptor M1 (Homo sapiens) (UniProt P11229); details: Compound concentration 10.0 uM
[25] = biological target: Muscarinic acetylcholine receptor M2 (Homo sapiens) (UniProt P08172); details: Compound concentration 10.0 uM
[26] = biological target: Alpha-2A adrenergic receptor (Homo sapiens) (UniProt P08913); details: Compound concentration 10.0 uM
[27] = biological target: Beta-1 adrenergic receptor (Homo sapiens) (UniProt P08588); details: Compound concentration 10.0 uM
[28] = biological target: 5-hydroxytryptamine receptor 6 (Homo sapiens) (UniProt P50406); details: Compound concentration 10.0 uM
[29] = biological target: Sodium-dependent serotonin transporter (Homo sapiens) (UniProt P31645); details: Compound concentration 10.0 uM
[30] = biological target: Beta-2 adrenergic receptor (Homo sapiens) (UniProt P07550); details: Compound concentration 10.0 uM
[31] = biological target: 5-hydroxytryptamine receptor 2A (Homo sapiens) (UniProt P28223); details: Compound concentration 10.0 uM
[32] = biological target: 5-hydroxytryptamine receptor 1D (Homo sapiens) (UniProt P28221); details: Compound concentration 10.0 uM
[33] = biological target: D(4) dopamine receptor (Homo sapiens) (UniProt P21917); details: Compound concentration 10.0 uM
[34] = biological target: Sodium-dependent noradrenaline transporter (Homo sapiens) (UniProt P23975); details: Compound concentration 10.0 uM
[35] = biological target: D(3) dopamine receptor (Homo sapiens) (UniProt P35462); details: Compound concentration 10.0 uM
[36] = biological target: Mu-type opioid receptor (Homo sapiens) (UniProt P35372); details: Compound concentration 10.0 uM
[37] = biological target: 5-hydroxytryptamine receptor 2B (Homo sapiens) (UniProt P41595); details: Compound concentration 10.0 uM
[38] = biological target: Histamine H4 receptor (Homo sapiens) (UniProt Q9H3N8); details: Compound concentration 10.0 uM
[39] = biological target: Sodium-dependent dopamine transporter (Homo sapiens) (UniProt Q01959); details: Compound concentration 10.0 uM
[40] = biological target: Sigma non-opioid intracellular receptor 1 (Homo sapiens) (UniProt Q99720); details: Compound concentration 10.0 uM
[41] = biological target: Serine/threonine-protein kinase Chk2 (Homo sapiens, UniProt O96017); assay: NanoBRET (SGC-Frankfurt) (CHEK2)
[42] = biological target: Alpha-1D adrenergic receptor (Homo sapiens) (UniProt P25100); details: Compound concentration 10.0 uM
[43] = biological target: Histamine H1 receptor (Homo sapiens) (UniProt P35367); details: Compound concentration 10.0 uM

Dual specificity testis-specific protein kinase 1 (Homo sapiens), sequence (Q15569 whole entry, looked up, canonical isoform): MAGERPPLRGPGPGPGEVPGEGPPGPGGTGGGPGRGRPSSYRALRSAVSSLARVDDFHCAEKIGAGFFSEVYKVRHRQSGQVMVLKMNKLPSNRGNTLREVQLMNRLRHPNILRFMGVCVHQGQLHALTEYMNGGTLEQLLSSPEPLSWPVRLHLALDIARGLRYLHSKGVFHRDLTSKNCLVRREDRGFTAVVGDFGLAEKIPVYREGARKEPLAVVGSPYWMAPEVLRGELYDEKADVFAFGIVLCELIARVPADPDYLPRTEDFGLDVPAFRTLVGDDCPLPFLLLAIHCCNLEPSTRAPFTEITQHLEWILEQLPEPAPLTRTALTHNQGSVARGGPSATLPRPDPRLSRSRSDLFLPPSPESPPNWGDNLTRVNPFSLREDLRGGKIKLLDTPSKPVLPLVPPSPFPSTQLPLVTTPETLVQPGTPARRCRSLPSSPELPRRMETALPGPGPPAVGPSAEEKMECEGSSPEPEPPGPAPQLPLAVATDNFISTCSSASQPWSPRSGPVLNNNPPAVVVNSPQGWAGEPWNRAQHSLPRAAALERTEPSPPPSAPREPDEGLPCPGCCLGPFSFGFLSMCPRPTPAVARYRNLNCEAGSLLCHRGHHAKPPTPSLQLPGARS
Phosphatidylinositol 4,5-bisphosphate 3-kinase catalytic subunit alpha isoform (Homo sapiens), P42336 [C420R], sequence (P42336 whole entry C420R, canonical isoform): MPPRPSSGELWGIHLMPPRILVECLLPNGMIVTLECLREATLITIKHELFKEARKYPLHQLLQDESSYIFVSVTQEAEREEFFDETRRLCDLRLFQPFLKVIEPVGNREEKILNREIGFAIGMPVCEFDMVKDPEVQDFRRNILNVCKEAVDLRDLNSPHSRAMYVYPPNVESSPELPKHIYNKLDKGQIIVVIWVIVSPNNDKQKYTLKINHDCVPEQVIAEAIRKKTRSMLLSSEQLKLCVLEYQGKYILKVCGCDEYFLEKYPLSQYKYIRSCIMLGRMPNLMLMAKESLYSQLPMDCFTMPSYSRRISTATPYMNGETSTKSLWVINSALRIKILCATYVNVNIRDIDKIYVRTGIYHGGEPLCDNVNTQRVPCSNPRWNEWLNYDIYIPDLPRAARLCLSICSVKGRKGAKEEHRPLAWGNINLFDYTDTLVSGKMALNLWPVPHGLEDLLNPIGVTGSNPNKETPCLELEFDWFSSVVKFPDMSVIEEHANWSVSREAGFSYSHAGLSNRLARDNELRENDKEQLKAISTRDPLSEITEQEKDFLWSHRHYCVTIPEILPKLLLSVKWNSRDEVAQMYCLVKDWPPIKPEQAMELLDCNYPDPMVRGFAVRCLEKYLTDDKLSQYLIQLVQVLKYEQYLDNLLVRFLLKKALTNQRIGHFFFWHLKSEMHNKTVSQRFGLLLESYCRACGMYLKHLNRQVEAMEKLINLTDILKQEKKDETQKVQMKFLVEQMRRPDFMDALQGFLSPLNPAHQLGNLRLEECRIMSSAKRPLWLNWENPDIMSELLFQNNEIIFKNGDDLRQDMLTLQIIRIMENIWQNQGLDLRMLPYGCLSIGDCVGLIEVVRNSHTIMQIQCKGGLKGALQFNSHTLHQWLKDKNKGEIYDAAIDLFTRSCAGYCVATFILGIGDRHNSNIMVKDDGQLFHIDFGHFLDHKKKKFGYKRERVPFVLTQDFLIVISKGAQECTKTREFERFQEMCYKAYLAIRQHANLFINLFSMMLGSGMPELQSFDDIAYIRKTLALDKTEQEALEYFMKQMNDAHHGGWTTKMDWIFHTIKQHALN
Mitogen-activated protein kinase kinase kinase kinase 3 (Homo sapiens), sequence (Q8IVH8 whole entry): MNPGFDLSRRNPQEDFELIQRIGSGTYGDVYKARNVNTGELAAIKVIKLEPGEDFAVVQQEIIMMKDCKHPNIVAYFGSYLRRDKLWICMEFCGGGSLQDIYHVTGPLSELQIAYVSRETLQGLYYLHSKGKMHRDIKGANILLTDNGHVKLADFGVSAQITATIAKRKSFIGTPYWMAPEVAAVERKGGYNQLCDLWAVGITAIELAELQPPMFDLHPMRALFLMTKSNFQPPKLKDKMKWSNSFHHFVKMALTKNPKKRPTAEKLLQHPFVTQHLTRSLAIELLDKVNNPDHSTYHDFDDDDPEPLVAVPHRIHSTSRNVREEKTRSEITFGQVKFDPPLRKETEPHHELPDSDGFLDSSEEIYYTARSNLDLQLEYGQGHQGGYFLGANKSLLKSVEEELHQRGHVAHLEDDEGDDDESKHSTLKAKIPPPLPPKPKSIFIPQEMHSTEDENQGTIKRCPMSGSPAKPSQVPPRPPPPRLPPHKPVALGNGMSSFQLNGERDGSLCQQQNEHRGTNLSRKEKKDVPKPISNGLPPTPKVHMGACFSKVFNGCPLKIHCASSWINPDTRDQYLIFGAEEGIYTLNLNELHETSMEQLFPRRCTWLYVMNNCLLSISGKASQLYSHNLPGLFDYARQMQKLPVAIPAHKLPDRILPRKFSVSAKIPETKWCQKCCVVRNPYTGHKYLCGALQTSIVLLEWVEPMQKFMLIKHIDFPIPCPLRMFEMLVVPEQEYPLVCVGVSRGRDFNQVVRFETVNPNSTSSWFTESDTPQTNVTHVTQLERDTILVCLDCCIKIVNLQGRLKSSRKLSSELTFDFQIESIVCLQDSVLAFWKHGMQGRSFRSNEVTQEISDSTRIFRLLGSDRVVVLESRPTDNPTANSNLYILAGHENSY
Serine/threonine-protein kinase 35 (Homo sapiens), sequence (Q8TDR2 whole entry): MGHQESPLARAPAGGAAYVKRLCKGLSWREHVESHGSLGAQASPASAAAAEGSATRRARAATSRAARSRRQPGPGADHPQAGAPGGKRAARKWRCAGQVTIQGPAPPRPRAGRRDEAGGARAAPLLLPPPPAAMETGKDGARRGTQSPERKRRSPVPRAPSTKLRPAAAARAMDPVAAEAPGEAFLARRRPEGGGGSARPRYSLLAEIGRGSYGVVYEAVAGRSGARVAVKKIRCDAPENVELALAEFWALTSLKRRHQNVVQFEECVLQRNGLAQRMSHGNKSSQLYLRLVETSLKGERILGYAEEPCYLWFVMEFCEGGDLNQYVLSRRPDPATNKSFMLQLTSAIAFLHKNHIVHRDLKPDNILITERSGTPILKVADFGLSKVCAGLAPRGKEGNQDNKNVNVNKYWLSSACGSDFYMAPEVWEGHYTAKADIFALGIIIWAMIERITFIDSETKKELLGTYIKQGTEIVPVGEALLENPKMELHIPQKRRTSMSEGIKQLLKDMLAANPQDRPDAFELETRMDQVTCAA
5'-AMP-activated protein kinase catalytic subunit alpha-2 (Homo sapiens), sequence (P54646 whole entry, looked up): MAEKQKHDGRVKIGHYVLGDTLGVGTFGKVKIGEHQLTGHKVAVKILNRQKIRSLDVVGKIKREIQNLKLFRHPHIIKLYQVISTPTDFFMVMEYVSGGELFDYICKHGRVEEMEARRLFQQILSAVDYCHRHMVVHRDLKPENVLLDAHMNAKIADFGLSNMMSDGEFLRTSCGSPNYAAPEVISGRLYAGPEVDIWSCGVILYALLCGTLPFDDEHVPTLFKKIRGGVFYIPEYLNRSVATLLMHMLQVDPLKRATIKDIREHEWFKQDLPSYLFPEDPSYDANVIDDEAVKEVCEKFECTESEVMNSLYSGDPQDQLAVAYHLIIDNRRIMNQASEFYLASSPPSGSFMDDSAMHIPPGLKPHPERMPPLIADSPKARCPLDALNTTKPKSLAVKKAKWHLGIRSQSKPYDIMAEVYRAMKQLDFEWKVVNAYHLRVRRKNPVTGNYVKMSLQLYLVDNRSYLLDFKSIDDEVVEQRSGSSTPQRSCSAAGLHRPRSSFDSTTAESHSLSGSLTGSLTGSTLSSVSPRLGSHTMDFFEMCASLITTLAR
Maternal embryonic leucine zipper kinase (Homo sapiens), sequence (Q14680 whole entry, looked up): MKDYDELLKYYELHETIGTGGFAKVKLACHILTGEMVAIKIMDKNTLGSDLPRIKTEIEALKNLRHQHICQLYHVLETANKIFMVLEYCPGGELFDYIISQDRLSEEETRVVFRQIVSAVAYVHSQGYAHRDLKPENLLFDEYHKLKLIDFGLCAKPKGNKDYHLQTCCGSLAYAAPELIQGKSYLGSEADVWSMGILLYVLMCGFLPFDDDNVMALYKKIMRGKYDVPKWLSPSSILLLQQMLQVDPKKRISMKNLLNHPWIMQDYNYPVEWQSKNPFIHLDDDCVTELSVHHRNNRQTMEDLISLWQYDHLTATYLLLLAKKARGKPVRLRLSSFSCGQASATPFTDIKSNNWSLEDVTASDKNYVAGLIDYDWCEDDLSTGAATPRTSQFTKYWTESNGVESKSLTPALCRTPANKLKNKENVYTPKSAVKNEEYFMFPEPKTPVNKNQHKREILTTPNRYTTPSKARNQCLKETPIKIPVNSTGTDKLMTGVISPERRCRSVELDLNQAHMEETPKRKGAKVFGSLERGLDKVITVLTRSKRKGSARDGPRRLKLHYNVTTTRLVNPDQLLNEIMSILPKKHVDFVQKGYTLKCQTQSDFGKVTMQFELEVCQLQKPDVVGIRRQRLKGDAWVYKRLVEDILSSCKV
Serine/threonine-protein kinase RIO2 (Homo sapiens), sequence (Q9BVS4 whole entry, looked up): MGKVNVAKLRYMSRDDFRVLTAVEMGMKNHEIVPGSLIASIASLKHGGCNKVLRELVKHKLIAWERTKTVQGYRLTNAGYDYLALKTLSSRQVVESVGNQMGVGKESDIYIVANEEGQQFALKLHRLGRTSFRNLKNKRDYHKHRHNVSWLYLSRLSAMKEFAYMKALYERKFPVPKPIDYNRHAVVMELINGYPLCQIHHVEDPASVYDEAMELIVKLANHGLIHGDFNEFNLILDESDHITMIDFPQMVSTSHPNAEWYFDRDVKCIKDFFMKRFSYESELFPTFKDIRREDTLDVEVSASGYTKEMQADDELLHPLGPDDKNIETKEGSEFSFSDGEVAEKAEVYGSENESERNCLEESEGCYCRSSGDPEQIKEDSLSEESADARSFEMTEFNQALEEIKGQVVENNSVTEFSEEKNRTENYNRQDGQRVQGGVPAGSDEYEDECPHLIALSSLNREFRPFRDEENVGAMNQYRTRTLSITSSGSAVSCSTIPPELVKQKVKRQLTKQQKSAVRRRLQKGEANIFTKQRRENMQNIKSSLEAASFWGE

In the case of CS(=O)(=O)N1CCCC(NC(=O)[C@H](CCC2CCCCC2)NC(=O)c2ccc(CNc3ncnc4c3nnn4-c3ccccc3)cc2)C1 (stereo partly drawn) [SR-301], the residual activity [1] is reported as 75%, the residual activity [2] is reported as 100% and the residual activity [3] is reported as 100%. It also gave a residual activity [4] of 97%, a residual activity [5] of 100% and a residual activity [6] of 100%. The residual activity [7] was 99%, the residual activity [8] was 94% and the residual activity [9] was 100%. The residual activity [10] was 100%, the residual activity [11] was 100% and the residual activity [12] was 89%. It also gave a residual activity [13] of 100%, a residual activity [14] of 100% and a residual activity [15] of 90%.

For CS(=O)(=O)N1CCCC(NC(=O)[C@H](CCC2CCCCC2)NC(=O)c2ccc(CNC(=O)c3cnc4ccccn34)cc2)C1 (stereo partly drawn) [SR-302], the inhibition [16] was 3.1%, the inhibition (Rattus norvegicus) was 13.2% and the residual activity [1] was 87%. It also gave a residual activity [2] of 100%, an inhibition [17] of 13.5% and an inhibition [18] of 15.8%. The residual activity [4] was 100%, the inhibition [19] was 31.9% and the inhibition [20] was 34.9%. For the same compound, the inhibition [21] was -2.24%, the residual activity [5] was 100% and the inhibition [22] was 8.24%. For the same compound, the residual activity [6] was 94%, the inhibition [23] was 10.9% and the residual activity [7] was 100%. It also gave an inhibition [24] of 28.4%, an inhibition [25] of 18.5% and an inhibition [26] of 7.22%. The residual activity [8] was 100%, the inhibition [27] was 20.3% and the inhibition [28] was 18.2%. For the same compound, the inhibition [29] was 19.8%, the inhibition [30] was 16.3% and the residual activity [9] was 94%. It also gave an inhibition [31] of 3.03%, a residual activity [10] of 100% and a residual activity [11] of 93%. For the same compound, the inhibition [32] was 18.9%, the residual activity [12] was 93% and the inhibition [33] was 3.78%. For the same compound, the inhibition [34] was 3%, the residual activity [13] was 79% and the inhibition [35] was 2.38%. It also gave an inhibition [36] of 45.3%, an inhibition [37] of 12.2% and a residual activity [14] of 100%. It also gave an inhibition [38] of -7.56%, an inhibition [39] of 11.5% and a residual activity [15] of 100%. The inhibition [40] was 32%, the IC50 [41] was > 25 µM and the inhibition [42] was 6.47%. It also gave an inhibition [43] of 3.62%.
